Laboratory results taken from paper PMC8689648, “Binding Affinity Determines Substrate Specificity and Enables Discovery of Substrates for N-Myristoyltransferases” (ACS Catalysis, 2021).
Where two headings read alike, the source gives them in different places.

Key:
[1] = molecular target: T1, N-myristoyltransferase 1 (NMT1) (Homo sapiens, UniProt P30419); test: steady-state kinetics with ARF6 peptide (HPLC, MS); Kia from ordered Bi-Bi global fit; format: biochemical
T1 sequence (P30419 1-496): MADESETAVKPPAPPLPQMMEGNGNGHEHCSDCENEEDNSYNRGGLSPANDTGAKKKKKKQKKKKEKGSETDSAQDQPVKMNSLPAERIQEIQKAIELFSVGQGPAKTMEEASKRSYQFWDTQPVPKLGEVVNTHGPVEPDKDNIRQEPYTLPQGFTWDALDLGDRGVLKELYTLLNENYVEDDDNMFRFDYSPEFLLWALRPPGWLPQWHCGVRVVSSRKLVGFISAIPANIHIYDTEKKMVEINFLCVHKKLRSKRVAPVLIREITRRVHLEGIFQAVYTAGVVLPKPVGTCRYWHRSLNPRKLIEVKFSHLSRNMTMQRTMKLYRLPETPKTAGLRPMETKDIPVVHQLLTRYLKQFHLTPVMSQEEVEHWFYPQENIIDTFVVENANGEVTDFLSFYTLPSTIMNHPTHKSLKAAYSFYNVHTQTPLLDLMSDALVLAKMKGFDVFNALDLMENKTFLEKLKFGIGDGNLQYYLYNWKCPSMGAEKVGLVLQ

[2] = molecular target: T1, N-myristoyltransferase 1 (NMT1); test: steady-state inhibition kinetics of acetylation of ARF6 peptide (HPLC), recombinant NMT1; format: biochemical
[3] = molecular target: T1, N-myristoyltransferase 1 (NMT1); test: steady-state inhibition kinetics of myristoylation of ARF6 peptide (HPLC), recombinant NMT1; format: biochemical
[4] = molecular target: T2, human N-myristoyltransferase 1 (NMT1) (human) (UniProt P30419)
T2 sequence: T1 sequence (P30419 1-496)

Molecule: CCCCCCCCCCCCCC(=O)SCCNC(=O)CCNC(=O)[C@H](O)C(C)(C)COP(=O)(O)OP(=O)(O)OC[C@H]1O[C@@H](n2cnc3c(N)ncnc32)[C@H](O)[C@@H]1OP(=O)(O)O [Myr-CoA, myristoyl-CoA]
- Kd [1]: 200 ± 100 nM

Molecule: CC(=O)SCCNC(=O)CCNC(=O)[C@H](O)C(C)(C)COP(=O)(O)OP(=O)(O)OC[C@H]1O[C@@H](n2cnc3c(N)ncnc32)[C@H](O)[C@@H]1OP(=O)(O)O [Ac-CoA, acetyl-CoA]
- Kd ([1]; read-out: Kia): 2400 ± 500 nM

Molecule: CC(=O)CSCCNC(=O)CCNC(=O)[C@H](O)C(C)(C)COP(=O)(O)OP(=O)(O)OC[C@H]1O[C@@H](n2cnc3c(N)ncnc32)[C@H](O)[C@@H]1OP(=O)(O)O [S-acetonyl-CoA]
- Ki [2]: 10.1 ± 2.2 µM

Molecule: CCCCCCCCCCCCCC(=O)CSCCNC(=O)CCNC(=O)[C@H](O)C(C)(C)COP(=O)(O)OP(=O)(O)OC[C@H]1O[C@@H](n2cnc3c(N)ncnc32)[C@H](O)[C@@H]1OP(=O)(O)O [S-(2-oxo)pentadecyl-CoA]
- Ki [3]: 14.7 ± 2.2 nM

Molecule: GKVLSKIFWW [ARF6 N-terminal peptide (…)]
- Kpep (Michaelis constant Km for ARF6 peptide) of NMT1-catalysed acetylation, Ac-CoA as the first substrate; 50 mM TriCl pH 8.0, 37 °C [4]: 40 μM
- Kpep (Michaelis constant Km for ARF6 peptide) of NMT1-catalysed myristoylation, Myr-CoA as the first substrate; 50 mM TriCl pH 8.0, 37 °C [4]: 5 μM
